Assay results from publication PMC3260207, “Site-Directed Mutations and the Polymorphic Variant Ala160Thr in the Human Thromboxane Receptor Uncover a Structural Role for Transmembrane Helix 4” (PLoS ONE, 2012).
Where a chain is given by its changes, count along the chain named. Where “and” joins values, the source holds several entries; their conditions need not be identical. Equal entries are not always repeated.

How the values were obtained:
Assay in all cases: Intracellular calcium mobilization (Fluo-4NW) in transfected HEK293T cells
Assay type in all cases: cell-based
TP V110A mutant = biological target: T1, TP V110A mutant (Homo sapiens, UniProt P21731, V110A); conditions: read-out: EC50 of agonist U46619 (calcium mobilized), transiently transfected HEK293T cells, mean ± S.E
T1 construct: expressed in transfected cells; HEK293T (calcium assays)
T1 sequence (P21731 1-343 V110A): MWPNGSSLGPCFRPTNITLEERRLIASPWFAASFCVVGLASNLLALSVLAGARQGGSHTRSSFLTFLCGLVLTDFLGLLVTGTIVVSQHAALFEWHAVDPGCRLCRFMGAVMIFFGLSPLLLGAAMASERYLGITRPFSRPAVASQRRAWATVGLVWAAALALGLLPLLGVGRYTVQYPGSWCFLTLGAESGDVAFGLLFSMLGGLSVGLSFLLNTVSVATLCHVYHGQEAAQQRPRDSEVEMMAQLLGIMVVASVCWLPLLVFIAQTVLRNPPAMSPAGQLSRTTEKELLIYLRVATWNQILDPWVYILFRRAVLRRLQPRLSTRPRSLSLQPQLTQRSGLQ
Protocol: (§1) Amino acid substitutions were introduced into the synthetic TPα gene carried by the expression vector pMT4 as described previously, [29]. DNA sequences of all the mutated genes were verified by automated DNA sequencing. To minimize variations in transfection efficiency, the total amount transfected DNA was kept constant in all cases at 1 µg of DNA per 7×10^5 cells. The wild type TP or mutant genes were expressed in COS-1 cells using a DEAE-dextran based transient transfection method, [29], and in HEK293T cells using lipofectamine 2000 (Invitrogen). Except unless specified, the membranes prepared from COS-1 cells were used for radioligand binding assays and immunoblots. For intracellular calcium determination assays and immunofluorescence imaging, HEK293T cells were used. For transient transfections of HEK293T cells using the plasmid pMT4, lipofectamine 2000 (Invitrogen) mediated transfection was used as described by the manufacturer. Membranes were prepared using Buffers A and B and as described previously, [29]. The protein concentration in the resuspended membrane pellet was determined using a modified DC protein assay kit from Bio-Rad Laboratories (Hercules, CA).
(§2) Changes in intracellular calcium were measured by using the fluorescent calcium sensitive dye Fluo-4NW (Invitrogen). After 6–8 hours of transient transfection of HEK293T cells using lipofectamine 2000, 100,000 viable cells were plated into each well of a 96-well tissue culture treated BD-falcon optilux plates. Cells mock transfected with vector pMT4 alone were used as a negative control. Following 24 hours of incubation at 37°C, the media was removed and cells were incubated with the dye Fluo-4NW (Invitrogen) containing 77 µg/ml of probenecid for 1 hour, as recommended by the manufacturer. […] Dose–response curves were generated and EC50 values calculated by nonlinear regression analysis using PRISM software version 5.0 (GraphPad Software Inc, San Diego, CA) after subtracting the responses of mock-transfected cells stimulated with same concentrations of agonists.

[1] = biological target: T2, WT-TP (wild type human thromboxane A2 receptor TPα) (Homo sapiens, UniProt P21731); conditions: read-out: EC50 of agonist U46619 (calcium mobilized), transiently transfected HEK293T cells, mean ± S.E
T2 construct: expressed in transfected cells; HEK293T (calcium assays)
T2 sequence (P21731 1-343): T1 sequence (P21731 1-343 V110A) with A110V
Protocol: as §1, §2

TP G164V mutant = biological target: T3, TP G164V mutant (Homo sapiens, UniProt P21731, G164V); conditions: read-out: EC50 of agonist U46619 (calcium mobilized), transiently transfected HEK293T cells, mean ± S.E
T3 construct: expressed in transfected cells; HEK293T (calcium assays)
T3 sequence (P21731 1-343 G164V): T1 sequence (P21731 1-343 V110A) with A110V, G164V
Protocol: as §1, §2

[2] = biological target: T4, TP G164V/V110A double mutant (Homo sapiens, UniProt P21731, G164V/V110A); conditions: response could be restored upon stimulation with elevated levels of U46619
T4 construct: expressed in transfected cells; transient, pMT4
T4 sequence (P21731 1-343 V110A/G164V): T1 sequence (P21731 1-343 V110A) with G164V
Protocol: as §1, §2

TP A160S mutant = biological target: T5, TP A160S mutant (Homo sapiens, UniProt P21731, A160S); conditions: read-out: EC50 of agonist U46619 (calcium mobilized), transiently transfected HEK293T cells, mean ± S.E
T5 construct: expressed in transfected cells; HEK293T (calcium assays)
T5 sequence (P21731 1-343 A160S): T1 sequence (P21731 1-343 V110A) with A110V, A160S
Protocol: as §1, §2

- EC50 (TP V110A mutant): 2.7 ± 0.2 nM
- EC50 [1]: 13 nM and 13.1 nM
- EC50 (TP G164V mutant): 38 ± 2.1 nM
- Calcium response to U46619 [2]: reduced calcium response
- EC50 (TP A160S mutant): 9.3 ± 0.3 nM
Structure (SMILES): CCCCC[C@H](O)/C=C/[C@@H]1[C@@H](C/C=C\CCCC(=O)O)[C@H]2CO[C@@H]1C2 [U46619]
